Reference: patent US20050095278A1, “Use of nitroglycerin to relieve nocturnal muscle cramps” (priority 2003, published 2005)

Test system: patients with nocturnal leg muscle cramps
Experiment: Topically applied nitroglycerin (transdermal patch) in ten patients with nocturnal leg muscle cramps
Assay type: in vivo, human
From the text: The following Examples show the successful use of topically applied nitroglycerin in treating ten patients with nocturnal leg muscle cramps.

O=[N+]([O-])OCC(CO[N+](=O)[O-])O[N+](=O)[O-] [nitroglycerin]
relief in the frequency and severity of nocturnal muscle cramping (summary of the ten patients) (small amounts of nitroglycerin, even once daily): moderate to significant relief | relieving pain and cramping associated with nocturnal muscle cramps (observation) (topically applied by a transdermal patch to the lower extremity): effective in relieving pain and cramping | relief of pain and cramping associated with muscle cramps (early studies) (transdermal delivery at a rate of about 0.1 mg/hr): sufficient for relief of pain and cramping
